The supplement of paper PMC10307832

Experiments:
Test in all cases: relative viability (nuclei count vs DMSO), 5 days (fraction); higher = more cells survive
Selisistat + Foretinib = compound: C1CC(C2=C(C1)C3=C(N2)C=CC(=C3)Cl)C(=O)N [Selisistat] + COc1cc2c(Oc3ccc(NC(=O)C4(C(=O)Nc5ccc(F)cc5)CC4)cc3F)ccnc2cc1OCCCN1CCOCC1 [Foretinib] (partner 0.25 µM)
How it was run: (§1)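 Values are medians from duplicate plates. Each reflects relative viability, defined as the nuclei count of treated wells over that of vehicle wells. Lung cancer cell lines in 1536-well plates were pin-tool dosed one day after seeding with one drug alone or with a fixed anchor-drug dose plus five library-drug doses (not always all listed) in √10 steps, then fixed, stained and imaged at 4× after 5 days.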

Selisistat + Crizotinib = compound: C1CC(C2=C(C1)C3=C(N2)C=CC(=C3)Cl)C(=O)N [Selisistat] + C[C@@H](Oc1cc(-c2cnn(C3CCNCC3)c2)cnc1N)c1c(Cl)ccc(F)c1Cl [Crizotinib] (partner 1 µM)
How it was run: as §1

Selisistat + Linsitinib = compound: C1CC(C2=C(C1)C3=C(N2)C=CC(=C3)Cl)C(=O)N [Selisistat] + C[C@]1(O)C[C@@H](c2nc(-c3ccc4ccc(-c5ccccc5)nc4c3)c3c(N)nccn32)C1 [Linsitinib] (partner 1 µM)
How it was run: as §1

Serdemetan + Pictilisib = compound: c1ccc2c(CCNc3ccc(Nc4ccncc4)cc3)c[nH]c2c1 [Serdemetan] + CS(=O)(=O)N1CCN(Cc2cc3nc(-c4cccc5[nH]ncc45)nc(N4CCOCC4)c3s2)CC1 [Pictilisib] (partner 1 µM)
How it was run: as §1

Row | Cell Line | relative viability (Selisistat + Foretinib; first compound 0.4 µM) | relative viability (Selisistat + Foretinib; first compound 1.265 µM) | relative viability (Selisistat + Foretinib; first compound 4 µM) | relative viability (Selisistat + Foretinib; first compound 12.65 µM) | relative viability (Selisistat + Foretinib; first compound 40 µM) | relative viability (Selisistat + Crizotinib; first compound 0.4 µM) | relative viability (Selisistat + Crizotinib; first compound 1.265 µM) | relative viability (Selisistat + Crizotinib; first compound 12.65 µM) | relative viability (Selisistat + Crizotinib; first compound 40 µM) | relative viability (Selisistat + Linsitinib; first compound 0.4 µM) | relative viability (Selisistat + Linsitinib; first compound 1.265 µM) | relative viability (Selisistat + Linsitinib; first compound 12.65 µM) | relative viability (Selisistat + Linsitinib; first compound 40 µM) | relative viability (Serdemetan + Pictilisib; first compound 0.04 µM) | relative viability (Serdemetan + Pictilisib; first compound 0.1265 µM) | relative viability (Serdemetan + Pictilisib; first compound 0.4 µM) | relative viability (Serdemetan + Pictilisib; first compound 1.265 µM) | relative viability (Serdemetan + Pictilisib; first compound 4 µM) | relative viability (Selisistat + Crizotinib; first compound 4 µM) | relative viability (Selisistat + Linsitinib; first compound 4 µM)
1 | NCI-H460 | 1.01 | 0.969 | 0.967 | 1.01 | 1.05 | 1.02 | 0.658 | 0.881 | 0.987 | 0.848 | 0.663 | 0.821 | 0.824 | 0.339 | 0.366 | 0.27 | 0.287 | 0.253 | – | –
2 | EKVX | 0.808 | 0.83 | 0.595 | 0.866 | 0.867 | 0.964 | 0.925 | 0.896 | 0.983 | 1.14 | 0.982 | 0.914 | 0.939 | 0.532 | 0.414 | 0.352 | 0.441 | 0.425 | 1.01 | 0.983
3 | NCI-H358 | 0.808 | 0.763 | 0.553 | 0.727 | 0.833 | 0.586 | 0.526 | 0.621 | 0.613 | 0.722 | 0.726 | 0.687 | 0.68 | 0.364 | 0.368 | 0.332 | 0.281 | 0.317 | – | –
4 | EPLC-272H | 0.849 | 0.662 | – | 0.566 | 0.631 | 0.941 | 0.865 | 0.915 | 0.992 | 1.24 | 1.2 | 1 | 1.2 | 0.365 | 0.348 | 0.293 | 0.27 | 0.33 | – | –
5 | NCI-H1563 | 1.05 | 0.91 | 0.941 | 0.9 | 0.809 | 0.804 | 0.737 | 0.803 | 0.776 | 1.08 | 1.15 | 1.07 | 0.83 | 0.613 | 0.665 | 0.664 | 0.549 | 0.628 | 0.835 | 1.17
6 | NCI-H2126 | 1.27 | 1.16 | 1.17 | 1.32 | 1.16 | 1.1 | 0.976 | 1.01 | 1.12 | 0.807 | 0.663 | 0.758 | 0.804 | 0.552 | 0.473 | 0.428 | 0.521 | 0.542 | 0.992 | 0.686
7 | LXF-289 | 1.03 | 1.02 | 0.868 | 0.947 | 0.997 | 0.853 | 0.803 | 0.709 | 0.805 | 0.995 | 0.954 | 0.913 | 1.01 | 0.792 | 0.783 | 0.662 | 0.701 | 0.707 | 0.786 | 0.895
8 | NCI-H2009 | 1.33 | 1.17 | – | 1.22 | 1.17 | 1.09 | 1.02 | 0.989 | 0.906 | 1.19 | 1.17 | 1.1 | 1.18 | 0.793 | 0.822 | 0.887 | 0.424 | 0.662 | 1 | 1.19
9 | NCI-H2405 | 1.06 | 1.09 | 1.07 | 1.06 | 1.02 | 0.825 | 0.807 | 0.833 | 0.832 | 0.975 | – | 0.948 | 0.885 | 0.457 | 0.403 | 0.491 | 0.42 | 0.41 | 0.787 | –
10 | NCI-H1755 | 0.985 | 1.04 | 0.948 | 0.923 | 0.977 | 0.917 | 0.927 | 0.82 | 0.946 | 1.11 | 1.04 | 1.02 | 1.05 | 0.428 | 0.458 | 0.455 | 0.307 | 0.296 | 0.952 | 0.993
11 | HCC-78 | 0.497 | 0.567 | 0.414 | 0.562 | 0.592 | 0.341 | 0.304 | 0.307 | 0.345 | 0.571 | 0.483 | 0.537 | 0.437 | 0.207 | 0.201 | 0.155 | 0.192 | 0.245 | 0.3 | 0.553
12 | LOU-NH91 | 1.01 | 0.938 | 0.872 | 0.928 | 0.896 | 0.766 | 0.664 | 0.729 | 0.738 | 0.999 | 0.95 | 1.08 | 0.937 | 0.519 | 0.484 | – | 0.433 | 0.496 | 0.683 | 0.848
13 | IA-LM | 1.21 | 1.07 | 1.19 | 0.902 | 1.19 | 0.646 | 0.759 | – | 0.869 | 0.632 | 0.581 | 0.4 | 0.694 | 0.4 | 0.499 | 0.325 | 0.314 | 0.389 | 1.2 | 0.436
